Results from PMC11555231 (Nature Communications, 2024).
Bridge positions count the residues as written; N and C are the ends. Square brackets hold non-standard residues; d marks the D form. Peptide text beside a SMILES is read from it.

Tests used:
Assay type in all cases: cell-based
human neutrophils [1] = assay: Cholesterol crystal stimulation and NET preparation, immunoblot of citrullinated histone H3; conditions: 50 µM peptide pre-incubated 1 h, 1 mg/ml cholesterol crystals
Description: (§1) Peripheral venous blood was isolated from consenting healthy adult volunteers in heparin tubes as previously described. Briefly, blood samples were on Histopaque 1119 (Sigma-Aldrich) and then centrifuged for 20 min at 800 × g. The plasma was collected and centrifuged for a second time for 20 min at 800 × g. The neutrophil layer was collected and washed in Hyclone Hank’s Balanced Salt Solution (HBSS) -Ca, -Mg, -Phenol red (GE Healthcare) supplemented with 10 mM HEPES (Invitrogen) 0.1% FBS and further purified with a discontinuous Percoll (GE Healthcare) gradient consisting of layers with densities of 85, 80, 75, 70 and 65% and centrifuged for 20 min at 800 × g. Neutrophil-enriched layers were then collected and washed, and neutrophil purity was assessed using flow cytometry.
About 1 × 10^6 human blood neutrophils were isolated as described in the “Human neutrophils from peripheral blood healthy donors” section. Neutrophils were seeded in 6 well plates in HBSS +Ca, +Mg, -Phenol red (GE Healthcare) containing 10 mM HEPES (Invitrogen), left to settle for 30 min, then pre-incubated with either 50 μM PADI4_3, PADI4_3i or DMSO (0.5%) for 1 h. […] NET DNA concentration was determined by Quant-iT Picogreen dsDNA reagent as per the manufacturer’s instructions (Thermo Fisher Scientific). […]

human neutrophils [2] = assay: Ca-ionophore stimulated neutrophils, citrullinated H3 immunostaining and confocal microscopy / immunoblot; conditions: 50 µM peptide, pre-incubated 60 min, 5 µM Ca-Ionophore
Description: as §1
About 5 × 10^4 sorted neutrophils were seeded in 24-well cell culture plates containing glass coverslips in HyClone HBSS +Ca, +Mg, - Phenol red (GE Healthcare) supplemented with 10 mM HEPES (Invitrogen). Neutrophils were stimulated with 5 µM Ca-Ionophore (Sigma) and fixed for 20 min at room temperature with 2% paraformaldehyde at RT. Cells were then washed and permeabilized with 0.5% Triton X-100 in PBS. Non-specific binding was blocked with 2% BSA (Sigma) and 2% donkey serum (Sigma) in PBS. Samples were stained with DAPI (Life Technologies), the rabbit anti-CitH3 (Abcam; ab5103 1:500) and donkey anti-rabbit alexa488 (Invitrogen; A21206). Fluorescence imaging was performed on a Leica TCS SP8 inverted confocal microscope using sequential scan in between frames mode with a 20x objective.
Neutrophil samples were boiled in a sodium dodecyl sulphate (SDS) buffer containing dithiothreitol (DTT) and run on a polyacrylamide gel electrophoresis (SDS-PAGE) using Criterion TGX precast gels (Any-KD; Bio-Rad Laboratories). Proteins were then transferred to a PVDF membrane (Bio-Rad Laboratories) via semi-dry transfer. The membrane was blocked with 5% BSA (Fisher Scientific) in Tris-buffered saline with 0.1% Tween-20 (TBS-T). Levels of citrullinated histone H3, total H3 and myeloperoxidase (MPO) were assessed by incubating membranes in either anti-histone H3 citrulline R2 + R8 + R17 (Abcam; ab5103 1:1000), anti-histone H3 (Millipore; 07-690 1:10000) or anti-MPO (DAKO; A0398 1:2500) overnight at 4 °C, respectively. For cell lysate-based assays and pull-down assays, membranes were incubated as above with anti-hPADI4 (Abcam; ab50332; 1:1000 in 5% BSA/TBS-T), anti-Bcr (Cell Signalling #3902S; 1:1000 in 3% milk/TBS-T) and anti-Impdh2 (Cell Signalling #57068S; 1:1000 in 3% milk/TBS-T). Membranes were washed in 0.1% TBS-T and subsequently incubated with goat anti-rabbit HRP or anti-goat (Fisher Scientific) for 1 h, followed by final washes in 0.1% TBS-T. Membranes were imaged with enhanced chemiluminescent substrate (ECL) (Thermo Fisher) on a Bio-Rad imager.

human neutrophils [3] = assay: Time-lapse imaging and NET quantification (NETosis); conditions: 50 µM peptide, 5 µM Ca-Ionophore, 12 h
Description: as §1
About 5 × 10^4 human neutrophils were seeded in a black 96-well plate (PerkinElmer) in HyClone HBSS +Ca, +Mg, - Phenol red (GE Healthcare) containing 10 mM HEPES (Invitrogen). Cells were pre-incubated with the corresponding peptide for 60 min prior to the start of the experiment. DNA of live cells was stained with 4 µg/mL Hoechst (membrane permeable; Thermo Scientific) and DNA from dead cells with 0.2 µM Sytox-green (membrane impermeable; Invitrogen). Cells were stimulated with 100 nM PMA, 5 µM Ca-Ionophore or 0.1 mg/mL cholesterol crystals at the start of the microscope acquisition. Plates stimulated with cholesterol crystals were centrifuged at 300×g for 5 min at RT immediately prior to microscope acquisition. The cells were imaged on an inverted Nikon wide-field microscope system at 37 °C and CO2 (5%). Four fields of view were acquired per well every 15 mins for 10–15 h using a 40x objective. NETs were differentiated from necrotic cells by the size of the sytox signal using FIJI[86]. […] [85]. Area measurements were distributed into bins of increasing area sizes and plotted as a percentage of the total number of Sytox-green positive (dead) cells.

`N=C(N)NCCC[C@@H]1NC(=O)[C@H](CC(=O)O)NC(=O)[C@@H](Cc2ccc(O)cc2)NC(=O)CSC[C@@H](C(=O)NCC(N)=O)NC(=O)[C@H](Cc2ccc(O)cc2)NC(=O)[C@H](CCCCN)NC(=O)[C@@H]2CCCN2C(=O)[C@H](Cc2c[nH]cn2)NC(=O)[C@H](CCCNC(=N)N)NC(=O)[C@H](Cc2ccc(O)cc2)NC(=O)[C@H](Cc2c[nH]cn2)NC(=O)[C@H](Cc2c[nH]cn2)NC1=O` [PADI4_3i] ({CH2CO}-[dY]DRHHYRHPKYCG-NH2; thioether N-12) was tested, and the “citrullination of histone 3 in NET preparations” value (human neutrophils [1]) was “abolished by PADI4_3 but not PADI4_3i”, the “H3Cit levels in neutrophils treated with calcium ionophore” value (human neutrophils [2]) was “neither response was affected” and the “NETosis induced by calcium ionophore” value (human neutrophils [3]) was “neither response was affected”.
